# In ChEMBL document CHEMBL5236664, “Design, synthesis and biological evaluation of KRASG12C-PROTACs” (Bioorg Med Chem, 2023):
# The source made the active and inactive calls. The calls are words filed in the database; no cut-off is given here.
# How the values were obtained:
# NCI-H358 [1] = assay: Antiproliferative activity against human NCI-H358 cells harboring KRAS G12C mutant assessed as inhibition of cell proliferation incubated for 48 hrs by MTT assay; format: functional, cell-based; settings: NCI-H358, 48 h
# MIA PaCa-2 [2] = assay: Antiproliferative activity against human MIA PaCa-2 cells harboring KRAS G12C mutant assessed as inhibition of cell proliferation incubated for 48 hrs by MTT assay; format: functional, cell-based; settings: MIA PaCa-2, 48 h
# [3] = test system: Protein cereblon/GTPase KRas (Homo sapiens), P01116+Q96SW2 [G12C]; assay: Protac activity at CRBN/KRAS G12C mutant in human NCI-H358 cells assessed as induction of KRAS G12C protein degradation at 1 uM incubated for 24 hrs by Western blot analysis; format: cell-based
# [4] = test system: Protein cereblon/GTPase KRas (Homo sapiens), P01116+Q96SW2 [G12C]; assay: Protac activity at CRBN/KRAS G12C mutant in human NCI-H358 cells assessed as induction of KRAS G12C protein degradation at 10 uM preincubated for 1 hr with proteasome inhibitor, MG-132 followed by compound addition and measured after 24 hrs by Western blot analysis; format: cell-based
# GTPase KRas = GTPase KRas (Homo sapiens, UniProt P01116, G12C); assay: Induction of KRAS G12C degradation in human MIA PaCa-2 cells assessed as reduction in KRAS G12C protein level incubated for 24 hrs by immunoblotting analysis; format: cell-based
# [5] = test system: von Hippel-Lindau disease tumor suppressor/GTPase KRas (Homo sapiens), P01116+P40337 [G12C]; assay: Protac activity at VHL/KRAS G12C mutant in human NCI-H358 cells assessed as induction of KRAS G12C protein degradation at 1 uM incubated for 24 hrs by Western blot analysis; format: cell-based
# [6] = test system: von Hippel-Lindau disease tumor suppressor/GTPase KRas (Homo sapiens), P01116+P40337 [G12C]; assay: Protac activity at VHL/KRAS G12C mutant in human NCI-H358 cells assessed as induction of KRAS G12C protein degradation at 10 uM preincubated for 1 hr with proteasome inhibitor, MG-132 followed by compound addition and measured after 24 hrs by Western blot analysis; format: cell-based
# [7] = test system: von Hippel-Lindau disease tumor suppressor/GTPase KRas (Homo sapiens), P01116+P40337 [G12C]; assay: Protac activity at VHL/KRAS G12C mutant in human NCI-H358 cells assessed as induction of KRAS G12C protein degradation at 10 uM incubated for 24 hrs by Western blot analysis; format: cell-based
# NCI-H358 [8] = assay: Inhibition of ERK phosphorylation in human NCI-H358 cells at 1 to 10 uM incubated for 24 hrs by Western blot analysis; format: cell-based; settings: dose 1-10 µM
# NCI-H358 [9] = assay: Antiproliferative activity against human NCI-H358 cells harboring KRAS G12C mutant assessed as inhibition of cell growth; format: functional, cell-based
# MIA PaCa-2 [10] = assay: Antiproliferative activity against human MIA PaCa-2 cells harboring KRAS G12C mutant assessed as inhibition of cell growth incubated for 5 days by celltiter-glow luminescent cell viability assay; format: functional, cell-based; settings: MIA PaCa-2, 120 h
# NCI-H358 [11] = assay: Antiproliferative activity against human NCI-H358 cells harboring KRAS G12C mutant assessed as inhibition of cell growth incubated for 5 days by celltiter-glow luminescent cell viability assay; format: functional, cell-based; settings: NCI-H358, 120 h
# [12] = test system: von Hippel-Lindau disease tumor suppressor/GTPase KRas (Homo sapiens), P01116+P40337 [G12C]; assay: Protac activity at VHL/KRAS G12C mutant in human NCI-H358 cells assessed as induction of KRAS G12C protein degradation incubated for 24 hrs by Western blot analysis; format: cell-based; settings: dose 5-25 µM
# [13] = test system: GTPase KRas (Homo sapiens), P01116 [G12C]; assay: In vivo target occupancy at KRAS G12C mutant in human MIA PaCa-2 cells xenografted athymic BALB/c nude mouse measured at 30 mins; format: functional, cell-based
# MIA PaCa-2 [14] = assay: Antiproliferative activity against human MIA PaCa-2 cells harboring KRAS G12C mutant assessed as inhibition of cell growth; format: functional, cell-based
# GTPase KRas, sequence (P01116 whole entry G12C): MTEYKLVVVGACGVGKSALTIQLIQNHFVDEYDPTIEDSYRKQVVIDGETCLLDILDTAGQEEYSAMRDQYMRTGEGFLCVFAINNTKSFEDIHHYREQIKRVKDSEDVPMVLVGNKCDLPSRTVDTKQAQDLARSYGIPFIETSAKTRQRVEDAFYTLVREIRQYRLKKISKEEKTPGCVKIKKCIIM
# GTPase KRas (Homo sapiens), P01116 [G12C], sequence (P01116 whole entry G12C): as above
smiles,measurement,setting,value
C=CC(=O)N1CCN(c2nc(=O)n(-c3ccc(C(=O)O)cc3C(C)C)c3cc(-c4ccccc4Cl)c(Cl)cc23)[C@@H](C)C1,IC50,NCI-H358 [1],> 10 µM
same,IC50,MIA PaCa-2 [2],> 10 µM
C=CC(=O)N1CCN(c2nc(=O)n(-c3ccc(C(=O)NCCCC(=O)Nc4cccc5c4CN(C4CCC(=O)NC4=O)C5=O)cc3C(C)C)c3cc(-c4ccccc4Cl)c(Cl)cc23)[C@@H](C)C1 (some centres not stated),IC50,NCI-H358 [1],22.7 µM
same,Activity,[3],inactive
same,Activity,[4],inactive
same,IC50,MIA PaCa-2 [2],17.1 µM
C=C(F)C(=O)N1CCN(c2nc(OC[C@@H]3CCCN3CCCOCCC(=O)N[C@H](C(=O)N3C[C@H](O)C[C@H]3C(=O)NCc3ccc(-c4scnc4C)cc3)C(C)(C)C)nc3c2CCN(c2cccc4cccc(Cl)c24)C3)C[C@@H]1CC#N,EC50,GTPase KRas,0.32 µM
C=CC(=O)N1CCN(c2nc(=O)n(-c3ccc(C(=O)NCc4cn(CCOCCOCCOCCOCC(=O)N[C@H](C(=O)N5C[C@H](O)C[C@H]5C(=O)NCc5ccc(-c6scnc6C)cc5)C(C)(C)C)nn4)cc3C(C)C)c3cc(-c4ccccc4Cl)c(Cl)cc23)[C@@H](C)C1,Activity,[5],inactive
same,IC50,NCI-H358 [1],17.1 µM
same,Activity,[6],inactive
same,Activity,[7],Active
same,IC50,MIA PaCa-2 [2],24.3 µM
same,inhibition,NCI-H358 [8],Active
C=C(F)C(=O)N1CCN(c2nc(OC[C@@H]3CCCN3C)nc3c2CCN(c2cccc4cccc(Cl)c24)C3)C[C@@H]1CC#N [ADAGRASIB],IC50,NCI-H358 [9],0.001 µM
C=CC(=O)N1CCN(c2nc(=O)n(-c3ccccc3C(C)C)c3cc(-c4ccccc4Cl)c(Cl)cc23)[C@@H](C)C1,IC50,NCI-H358 [1],1.48 µM
same,IC50,MIA PaCa-2 [2],0.77 µM
C=CC(=O)N1CCN(c2nc(NCCCN3CCN(CCCNc4cccc5c4C(=O)N(C4CCC(=O)NC4=O)C5=O)CC3)nc3c(F)c(-c4cc(O)cc5ccccc45)c(Cl)cc23)CC1 (configuration not stated),IC50,MIA PaCa-2 [10],4.14 µM
same,IC50,NCI-H358 [11],0.51 µM
C=CC(=O)N1CCN(c2nc(=O)n(-c3ccc(C(=O)NCCOCCOCCOCCOCC(=O)N[C@H](C(=O)N4C[C@H](O)C[C@H]4C(=O)NCc4ccc(-c5scnc5C)cc4)C(C)(C)C)cc3C(C)C)c3cc(-c4ccccc4Cl)c(Cl)cc23)[C@@H](C)C1,Activity,[5],inactive
same,IC50,NCI-H358 [1],11.1 µM
same,Activity,[6],inactive
same,Activity,[7],Active
same,Activity,[12],Dose-Dependent Effect
same,IC50,MIA PaCa-2 [2],17.9 µM
same,inhibition,NCI-H358 [8],Active
C=CC(=O)N1CCN(c2ncnc3c(F)c(-c4c(O)cccc4F)c(Cl)cc23)CC1,Occ,[13],> 75%
C=CC(=O)N1CCN(c2nc(=O)n(-c3ccc(C(=O)NCCCCCC(=O)N[C@H](C(=O)N4C[C@H](O)C[C@H]4C(=O)NCc4ccc(-c5scnc5C)cc4)C(C)(C)C)cc3C(C)C)c3cc(-c4ccccc4Cl)c(Cl)cc23)[C@@H](C)C1,Activity,[5],inactive
same,IC50,NCI-H358 [1],14.2 µM
same,Activity,[6],inactive
same,Activity,[7],Active
same,IC50,MIA PaCa-2 [2],24.2 µM
C=CC(=O)N1CCN(c2nc(=O)n(-c3c(C)ccnc3C(C)C)c3nc(-c4c(O)cccc4F)c(F)cc23)[C@@H](C)C1 [SOTORASIB],IC50,MIA PaCa-2 [14],0.022 µM
